Experimental data taken from ChEMBL document CHEMBL4038308, “Lipophosphonoxins II: Design, Synthesis, and Properties of Novel Broad Spectrum Antibacterial Agents” (J Med Chem, 2017).

Tested on: J774.A1
Assay: Cytotoxicity against mouse J774A.1 cells assessed as damage to cell membrane by measuring propidium iodide intake at 5 uM by spectrofluorometric analysis
Format: cell-based
Details: j774.a1, 5 µM

CC[C@H](C)[C@H](NC(=O)CN)C(=O)NCC(=O)N[C@@H](C)C(=O)N[C@H](C(=O)N[C@@H](CC(C)C)C(=O)N[C@@H](CCCCN)C(=O)N[C@H](C(=O)N[C@@H](CC(C)C)C(=O)N[C@H](C(=O)N[C@H](C(=O)NCC(=O)N[C@@H](CC(C)C)C(=O)N1CCC[C@H]1C(=O)N[C@@H](C)C(=O)N[C@@H](CC(C)C)C(=O)N[C@H](C(=O)N[C@@H](CO)C(=O)N[C@@H](Cc1c[nH]c2ccccc12)C(=O)N[C@H](C(=O)N[C@@H](CCCCN)C(=O)N[C@@H](CCCNC(=N)N)C(=O)N[C@@H](CCCCN)C(=O)N[C@@H](CCCNC(=N)N)C(=O)N[C@@H](CCC(N)=O)C(=O)N[C@@H](CCC(N)=O)C(N)=O)[C@@H](C)CC)[C@@H](C)CC)[C@@H](C)O)[C@@H](C)O)C(C)C)C(C)C [MELITTIN]
Activity: Toxic
